Experimental data taken from ChEMBL document CHEMBL1201862, “PubChem BioAssay data set” (2004).
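How tested: cells in 96-well plates exposed to compound for 48 hours at five concentrations. At the GI50, growth is halved.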 Active and inactive are the calls of the source. Cut-off read from the data, not from the text of the source: active = GI50 up to about 1.1 µM and inactive = higher.

How the values were obtained:
Assay in all cases: DTP human tumour cell line panel, 48 h
ACHN = system: ACHN
T47D = system: T47D
IGROV-1 = system: IGROV-1
MOLT-4 = system: MOLT-4
NCI-H226 = system: NCI-H226
SF-295 = system: SF-295
SF-539 = system: SF-539
COLO 205 = system: COLO 205
HOP-62 = system: HOP-62
UO-31 = system: UO-31
NCI-H522 = system: NCI-H522
HCT-116 = system: HCT-116
TK-10 = system: TK-10
Malme-3M = system: Malme-3M
SK-MEL-2 = system: SK-MEL-2
HOP-92 = system: HOP-92
OVCAR-4 = system: OVCAR-4
K562 = system: K562
LOX IMVI = system: LOX IMVI
HCC 2998 = system: HCC 2998

Measured: GI50

CCOc1cc(C2CC(c3ccc(NS(=O)(=O)c4cc([N+](=O)[O-])ccc4C)cc3)=NN2S(=O)(=O)c2cc([N+](=O)[O-])ccc2C)ccc1O (stereo not drawn)
inactive: ACHN 39.6 µM | T47D 19.8 µM | IGROV-1 18.5 µM | MOLT-4 30.4 µM | NCI-H226 31.6 µM | SF-295 31.9 µM | SF-539 33.7 µM | COLO 205 37.4 µM | HOP-62 30.8 µM | UO-31 32.6 µM | NCI-H522 22.9 µM | HCT-116 36.5 µM | TK-10 36.4 µM | Malme-3M 23.3 µM | SK-MEL-2 22.6 µM | HOP-92 17.5 µM | OVCAR-4 38.6 µM | K562 35.1 µM | LOX IMVI 40.1 µM

CCOC(=O)c1cc(C)nc2c1c(=O)n(-c1ccccc1)c(=O)n2CCCCN1CCN(c2ncccn2)CC1
inactive: ACHN > 100 µM | T47D 43.5 µM | IGROV-1 > 100 µM | MOLT-4 11.3 µM | NCI-H226 > 100 µM | SF-295 > 100 µM | COLO 205 60.1 µM | HOP-62 > 100 µM | UO-31 38.5 µM | NCI-H522 > 100 µM | HCC 2998 > 100 µM | HCT-116 85.5 µM | TK-10 > 100 µM | Malme-3M > 100 µM | SK-MEL-2 > 100 µM | HOP-92 34.6 µM | K562 39.1 µM | LOX IMVI 56.9 µM

CC1(C)CC(=O)c2c(nc3ccc4ccccc4c3c2-c2ccc(NC(=O)CCC(=O)Nc3ccc(-c4c5c(nc6ccc7ccccc7c46)CC(C)(C)CC5=O)cc3)cc2)C1
inactive: ACHN > 100 µM | T47D > 100 µM | IGROV-1 > 100 µM | MOLT-4 > 100 µM | NCI-H226 > 100 µM | SF-295 > 100 µM | SF-539 > 100 µM | COLO 205 > 100 µM | HOP-62 > 100 µM | UO-31 > 100 µM | NCI-H522 > 100 µM | HCT-116 > 100 µM | TK-10 > 100 µM | SK-MEL-2 > 100 µM | K562 > 100 µM | LOX IMVI > 100 µM

CN1C[C@H]2[C@@H](C1=O)[C@H](c1ccccc1)ON2C
inactive: ACHN > 100 µM | T47D > 100 µM | IGROV-1 > 100 µM | MOLT-4 > 100 µM | NCI-H226 > 100 µM | SF-295 > 100 µM | COLO 205 > 100 µM | HOP-62 > 100 µM | UO-31 > 100 µM | NCI-H522 > 100 µM | HCC 2998 > 100 µM | HCT-116 > 100 µM | TK-10 > 100 µM | SK-MEL-2 > 100 µM | HOP-92 59.2 µM | OVCAR-4 > 100 µM | K562 > 100 µM | LOX IMVI > 100 µM

CC(C)(C)[Si](C)(C)OCC1CCC(n2cnc3c(N)ncnc32)O1 (stereo not drawn)
inactive: T47D 27.2 µM | IGROV-1 53.8 µM | MOLT-4 14.7 µM | NCI-H226 > 100 µM | SF-295 81.8 µM | COLO 205 > 100 µM | HOP-62 95.7 µM | UO-31 44.4 µM | HCT-116 39.2 µM | TK-10 > 100 µM | SK-MEL-2 32.1 µM | HOP-92 > 100 µM | OVCAR-4 > 100 µM | K562 3.45 µM | LOX IMVI > 100 µM

N#CSCC1COc2ccccc2O1 (stereo not drawn)
inactive: ACHN > 10 µM | T47D > 10 µM | IGROV-1 > 10 µM | MOLT-4 3.3 µM | NCI-H226 6.11 µM | SF-295 > 10 µM | SF-539 > 10 µM | COLO 205 > 10 µM | HOP-62 > 10 µM | UO-31 > 10 µM | NCI-H522 2.62 µM | HCC 2998 > 10 µM | HCT-116 5.92 µM | TK-10 > 10 µM | Malme-3M > 10 µM | SK-MEL-2 > 10 µM | OVCAR-4 > 10 µM | K562 1.77 µM | LOX IMVI 3.78 µM

O=C(O)CCCCCCCCC(=O)O [SEBACIC ACID]
inactive: IGROV-1 > 500 µM | MOLT-4 > 500 µM | NCI-H226 > 500 µM | SF-295 79.3 µM | SF-539 > 79.3 µM | COLO 205 > 79.3 µM | HOP-62 > 50 µM | UO-31 > 79.3 µM | NCI-H522 > 500 µM | HCC 2998 50 µM | HCT-116 > 500 µM | Malme-3M > 500 µM | SK-MEL-2 > 500 µM | HOP-92 5 µM | OVCAR-4 > 50 µM | K562 > 500 µM | LOX IMVI > 500 µM

Cc1ccc(S(=O)(=O)NC(=O)NC(Cc2ccccc2)C(=O)O)cc1 (stereo not drawn)
inactive: ACHN > 100 µM | T47D > 100 µM | IGROV-1 > 100 µM | MOLT-4 > 100 µM | SF-295 > 100 µM | SF-539 > 100 µM | COLO 205 > 100 µM | HOP-62 > 100 µM | UO-31 > 100 µM | NCI-H522 > 100 µM | HCT-116 > 100 µM | TK-10 > 100 µM | Malme-3M > 100 µM | SK-MEL-2 > 100 µM | HOP-92 > 100 µM | OVCAR-4 > 100 µM | K562 > 100 µM | LOX IMVI > 100 µM

O=C(Nc1ccc(C2=NCCN2)cc1)c1cncc(C(=O)Nc2ccc(C3=NCCN3)cc2)c1
inactive: IGROV-1 > 100 µM | MOLT-4 > 100 µM | NCI-H226 > 94.6 µM | SF-295 > 100 µM | SF-539 > 100 µM | COLO 205 > 100 µM | HOP-62 > 100 µM | UO-31 > 100 µM | NCI-H522 > 100 µM | HCC 2998 > 100 µM | HCT-116 > 100 µM | Malme-3M > 100 µM | SK-MEL-2 > 100 µM | HOP-92 > 100 µM | OVCAR-4 > 100 µM | K562 > 100 µM | LOX IMVI > 100 µM

O=C1CSC(c2ccccc2)N1c1ccc(-c2ccc(-n3c(-c4ccccc4)nc4ccccc4c3=O)cc2)cc1 (stereo not drawn)
inactive: ACHN 53 µM | T47D 25 µM | IGROV-1 > 100 µM | MOLT-4 19.6 µM | SF-295 64.3 µM | COLO 205 38.2 µM | HOP-62 > 100 µM | UO-31 49.8 µM | NCI-H522 47.8 µM | HCC 2998 34.8 µM | TK-10 57.9 µM | Malme-3M 35.4 µM | SK-MEL-2 25.5 µM | HOP-92 > 100 µM | OVCAR-4 30.5 µM | K562 33.3 µM | LOX IMVI 50.7 µM

COc1ccc(-c2cc(=O)c3ccccc3o2)cc1N
inactive: ACHN 37.1 µM | IGROV-1 55.5 µM | MOLT-4 26.3 µM | NCI-H226 > 100 µM | SF-295 41.7 µM | SF-539 33.9 µM | COLO 205 33.4 µM | HOP-62 20.5 µM | UO-31 19.9 µM | NCI-H522 20.5 µM | HCC 2998 38 µM | HCT-116 32.8 µM | TK-10 > 100 µM | Malme-3M > 100 µM | SK-MEL-2 37.2 µM | HOP-92 76.2 µM | OVCAR-4 40.9 µM | K562 12.2 µM | LOX IMVI 34.6 µM
